{"source": "BindingDB's records for patent US20250042850", "about": "(Athos Therapeutics, 2025)", "test_in_all_cases": "Cytochrome P450 Inhibition of VNN1 Inhibitors", "key": {"Cytochrome P450 1A2": {"target": "T1, Cytochrome P450 1A2 (Homo sapiens, UniProt P05177)", "T1 sequence (P05177 whole entry)": "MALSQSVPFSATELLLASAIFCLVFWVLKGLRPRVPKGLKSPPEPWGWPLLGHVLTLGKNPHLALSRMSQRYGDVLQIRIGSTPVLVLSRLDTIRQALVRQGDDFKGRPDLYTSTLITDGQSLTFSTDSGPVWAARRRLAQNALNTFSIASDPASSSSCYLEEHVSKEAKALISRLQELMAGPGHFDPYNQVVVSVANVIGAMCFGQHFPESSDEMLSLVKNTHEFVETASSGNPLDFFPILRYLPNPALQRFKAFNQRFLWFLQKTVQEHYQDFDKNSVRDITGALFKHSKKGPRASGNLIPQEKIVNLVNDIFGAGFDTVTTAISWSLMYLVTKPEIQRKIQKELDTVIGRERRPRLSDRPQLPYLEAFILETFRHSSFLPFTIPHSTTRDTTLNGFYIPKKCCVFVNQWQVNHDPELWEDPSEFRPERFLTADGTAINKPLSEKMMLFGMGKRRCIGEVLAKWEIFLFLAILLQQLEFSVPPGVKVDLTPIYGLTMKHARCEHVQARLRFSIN", "experimental": "(§1) Table 3 and 4: The cocktail was incubated in human liver microsome with NADPH regenerating system (NRS) in a shaking bath at 37±2° C. The formation of specific metabolites was monitored by LC/MS/MS. Test compound was added to the cocktail-liver microsome mixture at varying concentrations and its effect on cytochrome P450 activity was determined by analyzing the rate of specific metabolite formation. The percent inhibition was calculated and plotted with reference to the concentration, and the IC50 value for inhibition was derived by fitting the data with a standard sigmoidal dose-response equation via MLA “Quest Graph™ ED50 Calculator.” AAT Bioquest, Inc, 17 Sep. 2020, aatbio.com/tools/ed50-calculator. […] The reliability of the inhibition assay was established by confirming the inhibition of known inhibitors on different P450 enzymes."}, "Cytochrome P450 2C19": {"target": "Cytochrome P450 2C19 (Homo sapiens, UniProt P33261)", "sequence (P33261 whole entry)": "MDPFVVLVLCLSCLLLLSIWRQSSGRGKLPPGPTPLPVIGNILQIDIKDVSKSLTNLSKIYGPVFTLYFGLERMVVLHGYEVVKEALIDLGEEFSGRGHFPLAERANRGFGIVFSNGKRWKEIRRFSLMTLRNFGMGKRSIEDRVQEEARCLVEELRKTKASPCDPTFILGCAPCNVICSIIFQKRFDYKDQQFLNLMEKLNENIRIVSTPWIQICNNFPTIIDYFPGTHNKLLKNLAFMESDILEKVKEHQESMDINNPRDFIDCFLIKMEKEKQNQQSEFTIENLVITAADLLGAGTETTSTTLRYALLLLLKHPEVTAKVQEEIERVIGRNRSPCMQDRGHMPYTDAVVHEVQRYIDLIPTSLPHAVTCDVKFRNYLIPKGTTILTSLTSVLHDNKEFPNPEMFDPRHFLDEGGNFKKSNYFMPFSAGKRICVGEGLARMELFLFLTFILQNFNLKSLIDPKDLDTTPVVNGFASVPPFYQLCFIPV", "experimental": "as §1"}, "Cytochrome P450 2C9": {"target": "Cytochrome P450 2C9 (Homo sapiens, UniProt P11712)", "sequence (P11712 whole entry)": "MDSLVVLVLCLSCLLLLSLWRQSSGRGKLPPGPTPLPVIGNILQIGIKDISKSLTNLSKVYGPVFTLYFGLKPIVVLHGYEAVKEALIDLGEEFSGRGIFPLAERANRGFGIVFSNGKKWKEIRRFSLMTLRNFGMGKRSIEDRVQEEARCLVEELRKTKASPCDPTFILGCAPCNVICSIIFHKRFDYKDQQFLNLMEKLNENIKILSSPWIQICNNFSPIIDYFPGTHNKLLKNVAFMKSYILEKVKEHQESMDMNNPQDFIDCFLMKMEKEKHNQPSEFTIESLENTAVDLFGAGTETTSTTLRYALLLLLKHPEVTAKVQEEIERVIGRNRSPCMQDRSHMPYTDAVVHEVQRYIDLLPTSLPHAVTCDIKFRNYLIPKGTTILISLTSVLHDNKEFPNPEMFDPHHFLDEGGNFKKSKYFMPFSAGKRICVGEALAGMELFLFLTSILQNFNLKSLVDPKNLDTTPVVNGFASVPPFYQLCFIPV", "experimental": "as §1"}}}
{"compound": "CC(C)(CO)[C@@H](O)C(=O)n1ccc(C(=O)N2CCCC2)c1", "note": "[US20250042850, Compound 10]", "values": [{"measurement": "IC50", "setting": "Cytochrome P450 1A2", "value": "> 100", "unit": "µM"}, {"measurement": "IC50", "setting": "Cytochrome P450 2C19", "value": 62.6, "unit": "µM"}, {"measurement": "IC50", "setting": "Cytochrome P450 2C9", "value": "> 100", "unit": "µM"}]}
